Test results: patent publication US8088806B2 (Achillion Pharmaceuticals, Inc., priority 2005, dated 2012)

test system: HCV replicon; assay: Replicon based assay of HCV replication inhibition (NPT ELISA); format: cell-based, Hepatitis C virus; conditions: Hepatitis C virus, Huh-7, 72 h, Table I; Huh-7 HCV replicon-containing cells, three days; read-out: Activity
Method in brief: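 NPT (neomycin phosphotransferase) content, proportional to replicon replication, quantified by capture ELISA on day four. Before that, replicon-bearing Huh-7 cells in G418-free screening medium were exposed three days at 37° C to compound, typically six doses from 10 to 0.03 micromolar, with equal DMSO across wells.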

SMILES | EC50 [µM]
CCCCCOc1ccc(Nc2nc(-c3cccnc3)cs2)cc1F [compound 68, N-(3-fluoro-4-(pentyloxy)phenyl)-4-(pyridin-3-yl)thiazol-2-amine] | < 1
CCOC(=O)c1cc(-c2csc(Nc3cccc(Oc4ccccc4)c3)n2)on1 [compound 190, ethyl S-(2-(3-phenoxyphenylamino)thiazol-4-yl)isoxazole-3-carboxylate] | > 10
Fc1ccc(-c2csc(Nc3ccc(OC(F)(F)F)cc3)n2)cc1 [compound 43, 4-(4-fluorophenyl)-N-(4-(trifluoromethoxy)phenyl)thiazol-2-amine] | > 10
COc1ccc(Nc2nc(-c3ccc(OCc4ccc(Br)cc4)cc3)cs2)cc1 [compound 122, 4-(4-(4-bromobenzyloxy)phenyl)-N-(4-methoxyphenyl)thiazol-2-amine] | > 10
CCCCOc1ccc(CNc2nc(-c3cccnc3)cs2)cc1 [compound 81, N-(4-butoxybenzyl)-4-(pyridin-3-yl)thiazol-2-amine] | > 10
CCCCCOc1ccc(NC(=O)c2csc(-c3cccnc3)n2)cc1C(F)(F)F [compound 127, N-(3-(trifluoromethyl)-4-(pentyloxy)phenyl)-2-(pyridin-3-yl)thiazole-4-carboxamide] | > 10
Clc1ccc(-c2csc(Nc3ccc(Cl)c(Cl)c3)n2)cc1 [compound 50, N-(3,4-dichlorophenyl)-4-(4-chlorophenyl)thiazol-2-amine] | > 10
CCCc1ccc(Nc2nc(-c3cccnc3)cs2)cc1 [compound 110, N-(4-propylphenyl)-4-(pyridin-3-yl)thiazol-2-amine] | > 10
CC(=O)c1cccc(Nc2nc(-c3c(C)nc4cc(C)ccn34)cs2)c1 [compound 167, 1-(3-(4-(2,7-dimethylH-imidazo[1,2-a]pyridin-3-yl)thiazol-2-ylamino)phenyl)ethanone] | > 10
Fc1ccc(-c2csc(NC3=NN(c4ccccc4)CC3)n2)cc1 [compound 146, N-(4-(4-fluorophenyl)thiazol-2-yl)-4,5-dihydro-1-phenyl-1H-pyrazol-amine] | > 10

same assay, conditions: Hepatitis C virus, Huh-7, 72 h, Table III; Huh-7 HCV replicon-containing cells, three days; read-out: Activity

SMILES | EC50 [µM]
CCCCCOc1ccc(Nc2nc(/C=C/c3ccc(Cl)cc3)cs2)cc1C(F)(F)F [compound 601, 4-(4-chlorostyryl)-N-(3-(trifluoromethyl)-4-(pentyloxy)phenyl)thiazol-2-amine] | < 1
CCCCCCCc1ccc(Nc2nc(-c3sc(-c4cnccn4)nc3C)cs2)cc1 [compound 566, N-(4-heptylphenyl)-4-(4-methyl-2-(pyrazin-2-yl)thiazol-5-yl)thiazol-2-amine] | < 1
CCCCCCCCOc1ccc(Nc2nc(-c3cncc(C#N)c3)cs2)cc1 [compound 655, 5-(2-(4-(octyloxy)phenylamino)thiazol-4-yl)pyridine-3-carbonitrile] | < 1
CCCCCCCCN(C)c1ccc(Nc2nc(-c3ccc(Cl)cc3)cs2)cc1C(F)(F)F [compound 579, N^4-(4-(4-chlorophenyl)thiazol-2-yl)-2-(trifluoromethyl)-N^1-methyl-N^1-octylbenzene-1,4-diamine] | < 1
CCCCCOc1ccc(Nc2nc(-c3cncc(C#N)c3)cs2)cc1C(F)(F)F [compound 520, 5-(2-(3-(trifluoromethyl)-4-(pentyloxy)phenylamino)thiazol-4-yl)pyridine-3-carbonitrile] | < 1
CCCCCCCCOc1ccc(Nc2nc(-c3ccc(C(F)(F)F)cn3)cs2)cc1C(F)(F)F [compound 709, N-(3-(trifluoromethyl)-4-(octyloxy)phenyl)-4-(5-(trifluoromethyl)pyridin-2-yl)thiazol-2-amine] | < 1

same assay, conditions: Hepatitis C virus, replicon based assay of HCV replication inhibition; Table II; read-out: Activity

SMILES | EC50 [µM]
CCCCCCCOc1ccc(Nc2nc(-c3c(C)cc(C)nc3C)cs2)cc1 [compound 446, N-(4-(heptyloxy)phenyl)-4-(2,4,6-trimethylpyridin-3-yl)thiazol-2-amine] | > 10
CCCCCOc1ccc(Nc2nc(CN3CCCCC3CO)cs2)cc1F (centres unmarked) [compound 286, (1-((2-(3-fluoro-4-(pentyloxy)phenylamino)thia-zol-4-yl)methyl)piperidin-2-yl)methanol] | 1 to 10
CCCCCOc1ccc(Nc2nc(C3(C(=O)OCC)CC3)cs2)cc1C(F)(F)F [compound 367, ethyl 1-(2-(4-(pentyloxy)-3-(trifluoromethyl)pheenyl-amino)thiazol-4-yl)cyclopropanecarboxylate] | > 10
CCCCCOc1ccc(Nc2nc(-c3cccs3)cs2)cc1C(F)(F)F [compound 358, N-(4-(pentyloxy)-3-(trifluoromethyl)phenyl)-4-(thiophen-2-yl)thiazol-2-amine] | < 1
CCCCCCCCOc1ccc(Nc2nc(-c3sc(-c4cnccn4)nc3C)cs2)cc1 [compound 390, 4-(4-methyl-2-(pyrazin-2-yl)thiazol-5-yl)-N-(4-(octyloxy)phenyl)thiazol-2-amine] | < 1
COc1ccc(-c2nc(Nc3cc(OC)ccc3OC)sc2-c2ccc(OC)cc2)cc1 [compound 357, N-(2,5-dimthoxyphenyl)-4,5-bis(4-methoxyphenyl)thiazol-2-amine] | > 10
CCCCCCCCOc1ccc(Nc2nc(-c3ccc(C)nc3)cs2)cn1 [compound 473, N-(4-(6-methylpyridin-3-yl)thiazol-2-yl)-6-(octyloxy)pyridin-3-amine] | < 1
CCCCCOc1ccc(Nc2nc(-c3cnc4scc(C)n34)cs2)cc1C(F)(F)F [compound 227, 4-(3-methylimidazo[1,2-b]thiazol-5-yl)-N-(4-(pentyloxy)-3-(trifluoromethyl)phenyl)thia-zol-2-amine] | < 1
CCCCCCCCOc1ccc(Nc2nc(-c3cccnc3C)cs2)cc1 [compound 442, 4-(2-methylpyridin-3-yl)-N-(4-(octyloxy)phenyl)thiazol-2-amine] | < 1
CCCCCOc1ccc(Nc2nc(CN3CCC(C(N)=O)CC3)cs2)cc1C(F)(F)F [compound 267, 1-((2-(4-(pentyloxy)-3-(trifluoromethyl)phenyl-amino)thiazol-4-yl)methyl)piperidine-4-carboxamide] | < 1
CCCCCOc1ccc(Nc2nc(-c3ccc(-c4ccccn4)s3)cs2)cc1C(F)(F)F [compound 411, N-(3-(trifluoromethyl)-4-(pentyloxy)phenyl)-4-(5-(pyridin-2-yl)thiophen-2-yl)thiazol-2-amine] | < 1
O=C(Nc1ccc(OCc2ccccc2)cc1)Nc1nc(-c2ccc(Cl)cc2)cs1 [compound 478, 1-(4-(benzyloxy)phenyl)-3-(4-(4-chlorophenyl)thiazol-2-yl)urea] | 1 to 10
CC/C=C\CCCCOc1ccc(Nc2nc(-c3ccc(F)cc3)cs2)cc1C(F)(F)F [compound 482, N-(4-((Z)-oct-5-enyloxy)-3-(trifluoromethyl)phenyl)-4-(4-fluorophenyl)thiazol-2-amine] | < 1
CCCCCOc1ccc(Nc2nc(CN3C(C)CCCC3C)cs2)cc1F (centres unmarked) [compound 297, 4-((2,6-dimethylpiperidin-1-yl)methyl)-N-(3-fluoro-4-(pentyloxy)phenyl)thiazol-2-amine] | 1 to 10

same assay, conditions: Hepatitis C virus, replicon based assay of HCV replication inhibition; Table IV; read-out: Activity

SMILES | EC50 [µM]
Cc1ccc(CCCCOc2ccc(Nc3nc(-c4ccc(CC(=O)O)s4)cs3)cc2C(F)(F)F)cc1 [compound 851, 2-(5-(2-(4-(4-p-tolylbutoxy)-3-(trifluoromethyl)phenylamino)thiazol-4-yl)thiophen-2-yl)acetic acid] | < 1
CCCCCCCN(C)Cc1ccc(Nc2nc(-c3cccnc3)cs2)cc1C(F)(F)F [compound 833, N-(4-((heptyl(methyl)amino)methyl)-3-(trifluoromethyl)phenyl)-4-(pyridin-3-yl)thiazol-2-amine] | < 1
CCOC(=O)Cc1ccc(-c2csc(Nc3ccc(OCCCCc4cccs4)c(C(F)(F)F)c3)n2)s1 [compound 926, ethyl 2-(5-(2-(4-(4-(thiophen-2-yl)butoxy)-3-(trifluoromethyl)phenylamino)thiazol-4-yl)thiophen-2-yl)acetate] | 1 to 10
CCN(CC)C(=O)c1cccc(Nc2nc(-c3cccnc3)cs2)c1 [compound 759, 3-(4-(pyridin-3-yl)thiazol-2-ylamino)-N,N-diethylbenzamide] | > 10
Fc1cc(Nc2nc(-c3cccnc3)cs2)ccc1OCCCc1ccccc1 [compound 853, N-(4-(3-phenylpropoxy)-3-fluorophenyl)-4-(pyridin-3-yl)thiazol-2-amine] | < 1
Cc1c(C)c(C)c(C(=O)CCc2cccc(Nc3nc(-c4cccnc4)cs3)c2)c(C)c1C [compound 898, 3-(3-(4-(pyridin-3-yl)thiazol-2-ylamino)phenyl)-1-(2,3,4,5,6-pentamethylphenyl)propan-1-one] | < 1
CCCCCCCCOc1ccc(Nc2nc(C(=O)CNc3nccs3)cs2)cc1C(F)(F)F [compound 784, 1-(2-(3-(trifluoromethyl)-4-(octyloxy)phenylamino)thiazol-4-yl)-2-(thiazol-2-ylamino)ethanone] | < 1
Fc1cc(Nc2nc(-c3cccnc3)cs2)ccc1OCCCCc1cccs1 [compound 852, N-(4-(4-(thiophen-2-yl)butoxy)-3-fluorophenyl)-4-(pyridin-3-yl)thiazol-2-amine] | < 1
FC(F)(F)c1cc(Nc2nc(-c3cccnc3)cs2)ccc1OCCCc1ccco1 [compound 860, N-(4-(3-(furan-2-yl)propoxy)-3-(trifluoromethyl)phenyl)-4-(pyridin-3-yl)thiazol-2-amine] | < 1
FC(F)(F)c1cc(Nc2nc(-c3cccnc3)cs2)ccc1OCCCc1cccnc1 [compound 800, N-(4-(3-(pyridin-3-yl)propoxy)-3-(trifluoromethyl)phenyl)-4-(pyridin-3-yl)thiazol-2-amine] | < 1
CCCCCCCCOc1ccc(Nc2nc(-c3cccn3C)cs2)cc1C(F)(F)F [compound 783, N-(3-(trifluoromethyl)-4-(octyloxy)phenyl)-4-(1-methyl-1H-pyrrol-2-yl)thiazol-2-amine] | < 1
